# Read-outs that look alike come from different tables or passages of the source.
# How the values were obtained:
# COX-2 [1] = target: COX-2 (Canis lupus familiaris, UniProt Q8SPQ9); assay: in vivo; details: for PGE2 Pg/mL/Well: 2 mg/kg PO 30 min before carrageenan, exudate fluid, group average; for inhibition at 2 mg/kg: dog, po
# Experimental: This objective of this study was to monitor in vivo COX-2 activity in a subcutaneously implanted chamber during an induced inflammation. The COX-2 enzyme can be detected by western analysis as early as 5 hours after carrageenan treatments (T. Kirchner et al., J. Pharmacol. Exp. Ther. (1997) 282, 1094-1101). […] Six beagle dogs had polyethylene “whiffle” golf balls approximately 4.2 cm in outer diameter surgically implanted under the skin just behind the shoulder blades.
# The experiment was run in two replicates. […] The hair around the ball was shaved and the area was probed to locate a hole in the whiffle ball. This area was then marked and it was sterilized with 2% iodine tincture. […] EF samples were taken at 0, 5, and 24 hours after carrageenan injection.
# The column was first washed with 10 mL of 0.1 M phosphate buffer then 10 mL water. The EF was then diluted 1:5 with 0.1 M phosphate buffer and added to the column. The column was washed with 10 mL of the phosphate buffer, then 10 mL of water. Finally, the PGE2 was removed from the column with 2.5 mL 95% ethanol.
# COX-2 [2] = target: COX-2 (Rattus norvegicus, UniProt P35355); assay: in vivo; details: read-out: COX-2 ED50
# Experimental: (§1) In vivo cyclo-oxygenase selectivity was evaluated in rats by the method of Griffiths et al., described in Agents & Actions, 32, (1991), 313-320. […] Synovial fluid is secreted by the synovial membrane and is contained in joint cavities. During joint inflammation, COX-2 is induced in joint tissues and prostaglandin products accumulate in the synovial fluid. […] Inhibition of this stomach isozyme results in adverse gastrointestinal side effects.
# COX-1 [3] = target: T1, COX-1 (Canis lupus familiaris, UniProt Q8HZR1); assay: Canine whole blood ex vivo COX-1 activity (A23187-stimulated TXB2), Example 2; assay type: in vivo, dog; details: for TXB2 Pg/mL/Well: group average; for inhibition at 2 mg/kg / inhibition at 10 mg/kg: dog, po, based on zero hour value, read-out: COX-1 activity Percent Inhibition
# T1 construct: using an ex vivo procedure on canine whole blood; from tissue; host or cells: whole blood of dosed dogs, stimulated with calcium ionophore A23187
# T1 sequence (Q8HZR1 28-603): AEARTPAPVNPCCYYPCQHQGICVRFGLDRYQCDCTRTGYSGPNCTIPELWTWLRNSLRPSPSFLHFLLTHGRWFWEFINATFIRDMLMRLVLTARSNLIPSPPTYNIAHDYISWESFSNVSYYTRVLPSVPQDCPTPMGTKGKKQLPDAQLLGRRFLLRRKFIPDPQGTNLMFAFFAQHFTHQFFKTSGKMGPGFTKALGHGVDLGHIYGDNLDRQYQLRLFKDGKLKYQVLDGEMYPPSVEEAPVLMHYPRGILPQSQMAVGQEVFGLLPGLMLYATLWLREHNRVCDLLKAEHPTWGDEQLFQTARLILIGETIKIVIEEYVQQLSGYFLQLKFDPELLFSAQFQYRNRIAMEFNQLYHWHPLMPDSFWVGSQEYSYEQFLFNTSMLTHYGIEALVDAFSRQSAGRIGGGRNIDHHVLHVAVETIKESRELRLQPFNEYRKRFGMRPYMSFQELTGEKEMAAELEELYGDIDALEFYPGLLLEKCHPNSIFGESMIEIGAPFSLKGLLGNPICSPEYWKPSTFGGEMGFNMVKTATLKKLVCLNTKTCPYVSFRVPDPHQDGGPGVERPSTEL
# Description: Plasma dilution was not factored in said data values.
# COX-1 [4] = target: T1, COX-1; assay: Ex vivo COX-1 whole blood assay (TXB2) run in the carrageenan study, Example 4; set-up: species or system dog; details: 2 mg/kg PO, any of the timepoints tested
# Description: The experiment was run in two replicates.
# Table 5 illustrates that carrageenan induced almost a 4-fold increase in PGE2 synthesis in the whiffle ball over background levels.
# COX-1 [5] = target: T2, COX-1 (Rattus norvegicus, UniProt Q63921); assay: Rat in vivo COX-1: PGE2 production in mucosal lining of stomach (Griffiths et al.)
# T2 construct: as measured in the mucosal lining of the rat stomach; from tissue; host or cells: mucosal lining of the rat stomach, in vivo
# T2 sequence (Q63921 27-602): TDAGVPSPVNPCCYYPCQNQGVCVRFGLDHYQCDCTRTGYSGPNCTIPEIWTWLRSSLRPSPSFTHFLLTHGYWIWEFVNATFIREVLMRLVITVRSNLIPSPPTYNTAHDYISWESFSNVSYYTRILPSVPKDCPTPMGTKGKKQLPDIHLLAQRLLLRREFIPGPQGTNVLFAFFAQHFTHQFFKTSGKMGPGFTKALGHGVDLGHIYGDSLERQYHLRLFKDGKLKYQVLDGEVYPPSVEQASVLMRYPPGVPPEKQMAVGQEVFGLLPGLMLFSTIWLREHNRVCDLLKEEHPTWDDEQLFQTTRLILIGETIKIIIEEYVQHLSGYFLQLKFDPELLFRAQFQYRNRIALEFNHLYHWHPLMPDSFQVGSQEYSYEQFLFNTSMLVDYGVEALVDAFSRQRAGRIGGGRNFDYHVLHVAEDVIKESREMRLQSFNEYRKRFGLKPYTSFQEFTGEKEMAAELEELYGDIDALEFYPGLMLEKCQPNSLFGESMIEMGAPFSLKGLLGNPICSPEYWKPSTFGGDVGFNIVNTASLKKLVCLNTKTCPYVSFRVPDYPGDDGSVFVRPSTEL
# Experimental: as §1
# COX-2 (Canis lupus familiaris, UniProt Q8SPQ9), sequence (Q8SPQ9 18-604): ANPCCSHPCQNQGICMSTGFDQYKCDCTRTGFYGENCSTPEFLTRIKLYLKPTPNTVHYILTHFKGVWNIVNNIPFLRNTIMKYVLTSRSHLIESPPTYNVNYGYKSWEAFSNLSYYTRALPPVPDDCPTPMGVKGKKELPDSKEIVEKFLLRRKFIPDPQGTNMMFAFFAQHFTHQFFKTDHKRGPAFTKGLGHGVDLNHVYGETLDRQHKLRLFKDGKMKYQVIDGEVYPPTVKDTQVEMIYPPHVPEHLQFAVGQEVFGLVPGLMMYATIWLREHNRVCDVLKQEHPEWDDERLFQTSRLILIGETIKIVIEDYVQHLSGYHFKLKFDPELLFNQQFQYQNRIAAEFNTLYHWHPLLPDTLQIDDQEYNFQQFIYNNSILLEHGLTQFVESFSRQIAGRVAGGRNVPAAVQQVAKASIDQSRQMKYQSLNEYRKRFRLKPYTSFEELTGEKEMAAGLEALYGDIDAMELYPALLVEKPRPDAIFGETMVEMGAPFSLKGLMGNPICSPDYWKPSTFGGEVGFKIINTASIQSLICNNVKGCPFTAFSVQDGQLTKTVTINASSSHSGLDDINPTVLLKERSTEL
# COX-2 (Rattus norvegicus, UniProt P35355), sequence (P35355 18-604): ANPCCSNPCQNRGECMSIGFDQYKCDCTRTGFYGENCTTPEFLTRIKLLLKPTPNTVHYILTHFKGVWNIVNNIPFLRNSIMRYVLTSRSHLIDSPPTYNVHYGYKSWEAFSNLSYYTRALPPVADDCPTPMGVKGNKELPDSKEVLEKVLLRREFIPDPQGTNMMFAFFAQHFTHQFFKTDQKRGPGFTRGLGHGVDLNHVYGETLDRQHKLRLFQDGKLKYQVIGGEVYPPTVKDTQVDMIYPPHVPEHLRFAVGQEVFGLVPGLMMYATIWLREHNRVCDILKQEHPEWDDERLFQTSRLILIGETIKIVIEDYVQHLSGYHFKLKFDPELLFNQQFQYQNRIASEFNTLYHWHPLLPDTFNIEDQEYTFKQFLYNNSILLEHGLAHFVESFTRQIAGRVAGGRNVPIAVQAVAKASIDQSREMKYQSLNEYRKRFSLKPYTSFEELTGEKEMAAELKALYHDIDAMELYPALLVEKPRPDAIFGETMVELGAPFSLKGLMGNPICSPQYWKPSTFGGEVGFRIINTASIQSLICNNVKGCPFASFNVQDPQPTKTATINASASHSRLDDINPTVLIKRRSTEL
compound,measurement,setting,value
"CC(C(=O)O)c1ccc2c(c1)[nH]c1ccc(Cl)cc12 (racemic) [Carprofen (rac.), 6-chloro-α-methyl-9H-carbazole-2-acetic acid]",PGE2 Pg/mL/Well,COX-2 [1]; 0-hour,6.5 Pg/mL/Well
same,PGE2 Pg/mL/Well,COX-2 [1]; 5-hour,1.9 Pg/mL/Well
same,PGE2 Pg/mL/Well,COX-2 [1]; 24-hour,3.2 Pg/mL/Well
same,inhibition at 2 mg/kg,"COX-2 [1]; read-out: In vivo COX-2 activity Percent Inhibition, 2 mg/kg PO, 5-hour after carrageenan, group average",71%
same,inhibition at 2 mg/kg,"COX-2 [1]; read-out: In vivo COX-2 activity Percent Inhibition, 2 mg/kg PO, 24-hour after carrageenan, group average",51%
same,ED50,COX-2 [2],0.63 mg/kg
same,TXB2 Pg/mL/Well,"COX-1 [3]; 2 mg/kg PO capsule, 0-hour (pre-dose)",72 Pg/mL/Well
same,TXB2 Pg/mL/Well,"COX-1 [3]; 2 mg/kg PO capsule, 1-hour post-dose",75 Pg/mL/Well
same,TXB2 Pg/mL/Well,"COX-1 [3]; 2 mg/kg PO capsule, 3-hour post-dose",66 Pg/mL/Well
same,TXB2 Pg/mL/Well,"COX-1 [3]; 2 mg/kg PO capsule, 6-hour post-dose",46 Pg/mL/Well
same,TXB2 Pg/mL/Well,"COX-1 [3]; 10 mg/kg PO capsule, 0-hour (pre-dose)",51 Pg/mL/Well
same,TXB2 Pg/mL/Well,"COX-1 [3]; 10 mg/kg PO capsule, 1-hour post-dose",31 Pg/mL/Well
same,TXB2 Pg/mL/Well,"COX-1 [3]; 10 mg/kg PO capsule, 3-hour post-dose",6 Pg/mL/Well
same,TXB2 Pg/mL/Well,"COX-1 [3]; 10 mg/kg PO capsule, 6-hour post-dose",7 Pg/mL/Well
same,inhibition at 2 mg/kg,"COX-1 [3]; 2 mg/kg PO capsule, 1-hour",0%
same,inhibition at 2 mg/kg,"COX-1 [3]; 2 mg/kg PO capsule, 3-hour",8%
same,inhibition at 2 mg/kg,"COX-1 [3]; 2 mg/kg PO capsule, 6-hour",36%
same,inhibition at 10 mg/kg,"COX-1 [3]; 10 mg/kg PO capsule, 1-hour",39%
same,inhibition at 10 mg/kg,"COX-1 [3]; 10 mg/kg PO capsule, 3-hour",88%
same,inhibition at 10 mg/kg,"COX-1 [3]; 10 mg/kg PO capsule, 6-hour",86%
same,ex vivo COX-1 inhibition of TXB2,COX-1 [4],no inhibition of TXB2
same,ED50,COX-1 [5],6.4 mg/kg
